Measured values reported in patent US11028364B2, “Compositions and methods for modulating an immune response” (President and Fellows of Harvard College, priority 2015, dated 2021).

Tests used:
Assay type in all cases: cell-based, mice
[1] = system: B cells cultured with TFH cells; test: in vitro cultures of B and TFH cells (activated culture) with addition of pathway/metabolic inhibitors; details: inhibitor added to activated culture (B + TFH), anti-CD3/IgM
Method: (§1) To determine the mechanisms of how TFH and B cells are altered during direct TFR suppression, an in vitro suppression assay in which TFR cells are cultured with TFH and B cells was utilized. See e.g., Sage et al., J Clin Invest 124, 5191-5204 (2014); Sage et al., Immunity 41, 1026-1039 (2014); Sage et al., Methods Mol Biol 1291, 151-160 (2015). For these assays, FoxP3IRES-GFP mice were immunized with NP-OVA (emulsified in CFA) subcutaneously and isolated draining lymph nodes 7 days later. TFR (sorted as CD4+ICOS+CXCR5+CD19− FoxP3+) cells were added to co-cultures of B (sorted as CD19+) and TFH (sorted as CD4+ICOS+CXCR5+CD19−FoxP3) cells along with anti-CD3 and anti-IgM for 2 to 6 days (FIG. 1A, FIG. 36A, and FIG. 36B).
To determine if suppressing Myc in activated B cells could recapitulate TFR suppression, in vitro suppression assays were performed in which B cells were cultured with TFH cells, TFH and TFR cells, or TFH cells and the Myc inhibitor 10058-F4 (F4w).
The mTOR pathway promotes protein synthesis during activation and has been linked to enhancing cellular metabolism. […] In vitro cultures of B and TFH cells were performed along with either the mTORc1 inhibitor rapamycin or TFR cells. […] Akt can act both upstream and downstream of mTOR to mediate activation signaling.
To determine if inhibiting glycolysis could recapitulate TFR suppression, cultures of B and TFH cells were performed with the addition of 2-deoxyglucose (2DG), a glucose analog that blocks glycolysis.
Therefore, whether inhibitors of purine metabolism could recapitulate TFR suppression in vitro was determined.

[2] = system: B cells from suppressed cultures; test: RNA-seq transcriptional analysis of B cells from suppressed cultures supplemented with IL-21
Method: In order to determine how B and TFH cells effector states are altered during TFR mediated suppression assays were performed followed by RNA-seq transcriptome analysis. In these experiments B and TFH cells (from immunized FoxP3-IRES-GFP mice) were cultured with or without TFR cells (from immunized ActinCFP FoxP3-IRES-GFP mice) for 6 days in the presence of NP-OVA (the same antigen used to generate the B, TFH and TFR cells). After 4 days of culture, B (sorted as CD19+IA+CD4−) and TFH (sorted as CD4+IA−CD19−CFP−) cells were sorted from the “activated” culture (TFH and B cells alone) or from the “suppressed” culture (TFH, B and TFR cells) and RNAseq transcriptional analysis was performed (FIG. 2A, FIG. 37A and FIG. 37B).
In order to determine which B cell function genes were rescued at the transcriptional level, RNA-seq transcriptional analysis was performed on B cells from activated cultures, from suppressed cultures, and suppressed cultures supplemented with IL-21. […] In the case of Aicda and Pou2af1, it is possible that this may be due to the epigenetic modification of these gene loci by TFR cells, however this was not tested directly.
Therefore, IL-21 overcomes TFR suppression by stimulating B cells as well as metabolic pathways.

[3] = system: B cells cultured with TFH and TFR cells (suppressed cultures); test: in vitro TFR suppression assay (B, TFH and TFR cells) with addition of cytokine; details: for amount of secreted antibody in culture supernatants: compared to activated cultures
Method: as §1, with “36B). After 6 days of co-culture of B and TFH cells, robust upregulation of the GC B cell marker GL7 was found as well as class switch recombination to IgG1, the predominant class switched isotype in this model (FIG. 1B). In addition, robust quantities of secreted IgG were found in the culture supernatant when B cells were cultured with TFH cells, but not when B cells were cultured alone. […] CD4^+CXCR5^−ICOS^−Foxp3^+ Treg cells were not able to suppress as efficiently as TFR cells did (FIG. 15). […] Therefore, this culture system is a robust model to study TFR suppression of TFH and B cells.” for “36B).”
It is possible that B cell function genes and multiple metabolic pathways cooperate to induce class switch recombination and antibody production in B cells. […] Therefore, to determine ways to overcome suppressed B cells therapeutically, it is possible that both B cell genes and metabolism would need to be energized to overcome suppression. […] When IL-21 was added to suppression assays, the attenuation in proliferation of B cells mediated by TFR cells was rescued (FIG. 11A).
Since metabolism is essential to facilitate B cell effector functions and is regulated by TFR cells, the metabolic potential of B cells was assessed in suppressed cultures with the addition of IL-21. […] Similarly, Glut1 expression on TFH cells was rescued when IL-21 was added to suppressed cultures. […] Therefore, addition of IL-21 can rescue the glycolytic function of suppressed B cells. It is possible that IL-21 rescues antibody production primarily through enhancing metabolism. To determine if enhanced glycolysis was required for the IL-21 rescue of antibody production in suppressed cultures, glycolysis was blocked to determine if antibody responses could still be rescued in the absence of enhanced metabolism. […] Therefore, IL-21 renders B cells resistant to TFR mediated suppression primarily by enhancing metabolism.
Whether IL-21 restored antibody production by acting directly on B cells was determined. Suppression assays were performed using B cells lacking the receptor for IL-21 (Il21r−/−). […] Since upregulation of GL7 is a robust indicator of B cell activation, its expression in suppressed cultures containing either Il21r+/+ B cells or Il21r−/− B cells and supplemented with IL-21 was compared.
Since IL-21 could be affecting the TFH, B or TFR cell in the suppressed culture, whether the rescue of suppressed metabolism could be due to a combined effect of stimulating B cells and inhibiting TFR suppression (by acting directly on the TFR cell) was determined. […] Therefore, IL-21 rescue of TFR cell suppression of B and TFH cells is the result of modulation of B cells as well as inhibiting TFR cells.

[4] = Il21r−/− B cells, suppressed cultures plus IL-21
[5] = cytokine added to suppressed culture
[6] = cytokine added to suppressed cultures
[7] = suppressed cultures with vs without IL-21

## CCc1ccc(/C=C2/SC(=S)NC2=O)cc1 [10058-F4]
[1]
  class switch recombination (IgG1+GL7+ B cells): slight diminishment
  secreted antibody / antibody production in culture supernatants: robustly attenuated

## IL-21: cytokine essential in the germinal center reaction
[2]; 12 genes differential in both suppressed vs IL-21 rescue and suppressed vs activated
  genes differentially expressed on suppression that are rescued (RNA-seq): only Ighg1 and Ighg2c were ‘rescued’
[2]; suppressed plus IL-21 cultures
  Aicda, Xbp1 and Pou2af1 transcripts (RNA-seq): did not show any evidence of rescue
  metabolic pathways (ssGSEA on RNA-seq): some rescue of many metabolic pathways
[2]; suppressed vs. suppressed plus IL-21 cultures
  B cell function gene transcripts (RNA-seq): only transcripts for the individual IgG isotypes (Ighg1, Ighg2c, Ighg2b, Igha) showed evidence of significant upregulation
[3]; Il21r+/+ B cells, suppressed cultures plus IL-21
  GL7 expression in B cells: restored
[3]; [4]
  GL7 expression in B cells: not
  antibody responses (IgG1+GL7+ B cells): no evidence was found that antibody responses were restored
  number of B cells: did not abolish the increase
  restoration of CSR: prevent the restoration
  restoration of Glut1 expression on B cells: prevent the restoration
[3]; cytokine added to suppressed culture (B + TFH + TFR)
  proliferation of B cells (Cell Trace Violet dilution): rescued
[3]; cytokine added to suppressed culture, compared to activated culture
  class switch recombination (IgG1+GL7+ B cells): much higher
[3]; [5]
  amount of secreted antibody in culture supernatants: mostly rescued
[3]; [6]
  Glut1 expression on B cells: completely rescued
  Glut1 expression on TFH cells: rescued
  glucose consumption in the culture: almost completely rescued
  lactate production in culture supernatants: substantially (although not completely) rescue
[3]; suppressed cultures plus IL-21 with addition of 2-deoxyglucose (2DG)
  rescue of antibody production when glycolysis is blocked: not being able to rescue suppression
[3]; [7]
  Glut1 expression in TFR cells: higher
  intracellular Ki67 staining in TFR cells: much less

## CN(Cc1cnc2nc(N)nc(N)c2n1)c1ccc(C(=O)N[C@@H](CCC(=O)O)C(=O)O)cc1 [MTX, Methotrexate]
[1]
  class switch recombination (IgG1+GL7+ B cells): potently suppressed
  secreted antibody / antibody production in culture supernatants: robustly suppresses

## IL-6: another Stat3 signaling cytokine
[3]; [5]
  amount of secreted antibody in culture supernatants: able to rescue
[3]; [6]
  lactate production in culture supernatants: substantially (although not completely) rescue

## Cn1cnc([N+](=O)[O-])c1Sc1ncnc2nc[nH]c12 [AZA, azathioprine]
[1]
  class switch recombination (IgG1+GL7+ B cells): potently suppressed
  secreted antibody / antibody production in culture supernatants: robust suppression

## O=CC[C@@H](O)[C@H](O)[C@H](O)CO [2DG, 2-deoxyglucose]
[1]
  secreted antibody / antibody production in culture supernatants: robust suppression

B1: IL-4: cytokine added to suppressed cultures (protein, UniProt P05112 25-153, looked up)
Interleukin-4: HKCDITLQEIIKTLNSLTEQKTLCTELTVTDIFAASKNTTEKETFCRAATVLRQFYSHHEKDTRCLGATAQQFHRHKQLIRFLKRLDRNLWGLAGLNSCPVKEANQSTLENFLERLKTIMREKYSKCSS
[3]; [5]
  amount of secreted antibody in culture supernatants: did not occur
